Source: patent publication US11965100B2, “Aggregation-induced emission luminogens useful for cancer cell discrimination and monitoring” (The Hong Kong University of Science and Technology, priority 2020, dated 2024)

Test: Absorption and one-photon excited fluorescence spectra, AIE activity
Type: physicochemical
Source text: Similar results were reported by others. […] With the increase of glycerol volume content accompanied by viscosity increasing, the FL intensity increased gradually. […] These phenomena occur because high viscosity and low temperature could hamper intramolecular motion, leading to the closure of the nonradiative decay channel and thus enhanced FL emission. Furthermore, we added some RNA in PBS solution of IVP-02. […] Based on the calculation results in FIG. 20, IVP-02 located in the minor grooves of RNA, where the intramolecular motion of IVP-02 was also hampered.

CC[n+]1ccc(/C=C/c2c[nH]c3ccccc23)cc1 [IVP-02]
AIE activity (viscosity, temperature, RNA, solid state): possesses AIE activity | fluorescence in the solid state (λex 440 nm): around 575 nm
